Measurements as given in ChEMBL document CHEMBL1201862, “PubChem BioAssay data set” (2004).
Activity calls are given as the source filed them.

How the values were obtained:
MEF = test: SAR analysis of small molecule cytotoxicity of MazEF TA System activators in embryonic fibroblast (MEF) cells. [Related pubchem assays (depositor defined):AID504720, AID504743]; format: functional; conditions: Mus musculus
[1] = target: T1, Endoribonuclease toxin MazF (Escherichia coli K-12, UniProt P0AE70); test: SAR analysis of small molecule activators of the MazEF TA System via a fluorescence-based single-stranded RNase assay counterscreen. [Related pubchem assays (depositor defined):AID504720, AID504743]; format: functional
T1 sequence (P0AE70 whole entry): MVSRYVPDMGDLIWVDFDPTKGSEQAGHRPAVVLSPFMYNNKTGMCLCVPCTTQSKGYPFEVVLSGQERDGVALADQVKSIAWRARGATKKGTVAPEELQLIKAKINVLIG

[2] = target: T1, Endoribonuclease toxin MazF; test: MazF endoribonuclease activators, SAR follow-up, biochemical, fluorescence, single-stranded RNA substrate (AID 588603); format: functional
[3] = target: T1, Endoribonuclease toxin MazF; test: MazF toxin RNase activators, dose response, biochemical, fluorescence, single-stranded RNA substrate, uHTS hits (AID 588481); format: functional
[4] = target: T1, Endoribonuclease toxin MazF; test: fluorescent RNA oligo signal without MazF, dose response, counter-screen for MazEF activator project, biochemical, fluorescence, single-stranded RNase substrate (AID 588502); format: functional
H4 = test: Luminescence Cell-Based Dose Response HTS to Identify Activators of 5'UTR Stem-Loop Driven Prion Protein mRNA Translation in H4 Neuroglioblastoma Cells. [Related pubchem assays: 1829 (Project Summary), 1814 (Primary HTS)]; format: functional; conditions: Homo sapiens
[5] = target: T2, High affinity choline transporter 1 (Homo sapiens, UniProt Q9GZV3); test: CHT activators, dose response, cell-based, 10-point CRC, membrane potential dye (AID 602376); format: functional
T2 sequence (Q9GZV3 whole entry): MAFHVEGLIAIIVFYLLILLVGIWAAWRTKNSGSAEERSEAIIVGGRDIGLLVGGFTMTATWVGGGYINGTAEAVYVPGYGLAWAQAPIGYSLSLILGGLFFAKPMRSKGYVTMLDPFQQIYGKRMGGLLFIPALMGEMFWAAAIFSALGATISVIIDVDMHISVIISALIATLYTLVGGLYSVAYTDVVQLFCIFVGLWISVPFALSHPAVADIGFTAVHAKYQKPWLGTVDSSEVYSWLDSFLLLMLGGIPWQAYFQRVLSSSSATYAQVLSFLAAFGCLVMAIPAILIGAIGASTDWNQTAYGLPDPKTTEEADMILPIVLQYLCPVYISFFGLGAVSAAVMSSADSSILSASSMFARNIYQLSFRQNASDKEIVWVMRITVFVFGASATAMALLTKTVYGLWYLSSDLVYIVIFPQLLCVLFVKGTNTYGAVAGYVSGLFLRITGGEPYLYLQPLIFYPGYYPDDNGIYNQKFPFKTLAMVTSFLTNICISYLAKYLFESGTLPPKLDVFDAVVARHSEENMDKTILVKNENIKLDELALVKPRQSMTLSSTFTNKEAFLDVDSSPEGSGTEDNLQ

[6] = Luminescence Cell-Based Dose Response HTS to Identify Activators of Luciferase Translation or Activity in H4 […] Cells. [Related pubchem assays: 1829 (Project Summary), 1814 (Primary HTS)]; format: functional
[7] = target: Benomyl/methotrexate resistance protein (Candida albicans, UniProt P28873); test: CaMdr1 efflux pump inhibitor potency, dose response, singleplex, Cherry Pick2 set (AID 623992); format: functional; conditions: read-out: EC50_MICROM
Candida albicans [8] = test: growth inhibition of azole-resistant C. albicans, dose response, CaCi-8 strain, Alamar Blue, dry powder, set 2 (AID 488909); format: functional, organism-based
Candida albicans [9] = test: fluconazole resistance reversal in C. albicans, dose response, CaCi-2 strain, Alamar Blue, dry powder, set 4 (AID 488943); format: functional, organism-based
Candida albicans [10] = test: growth inhibition of resistant C. albicans, dose response, CaCi-8 strain, fluconazole, dry powder, set 4 (AID 488950); format: functional, organism-based
Candida albicans [11] = test: C. albicans growth inhibition with fluconazole, dose response, antifungal resistance reversal project, CaCi-2 strain, Alamar Blue, dry powder, set 2 (AID 488930); format: functional, organism-based
HEK293 [12] = test: SAR Analysis of small molecule inhibitors of T-cell specific antigen receptor-induced NF-kB activation in a HEK-293T cell line using a luminescence assay - Set 2. [Related pubchem assays (depositor defined):AID435003, AID435012, AID489026]; format: functional, cell-based; conditions: Homo sapiens
HEK293 [13] = test: cytotoxicity in HEK293T NF-kB-Luc cells, SAR follow-up, cytotoxicity control for NF-kB activator project, cell-based, resazurin fluorescence (AID 493251); format: functional; conditions: Homo sapiens
Jurkat = test: SAR Analysis of small molecule inhibitors of T-cell specific antigen receptor-induced NF-kB activation in a Jurkat cell line using a luminescence assay - Set 2. [Related pubchem assays (depositor defined):AID435003, AID435012, AID465]; format: functional, cell-based; conditions: Homo sapiens

Chain of Benomyl/methotrexate resistance protein (P28873 whole entry): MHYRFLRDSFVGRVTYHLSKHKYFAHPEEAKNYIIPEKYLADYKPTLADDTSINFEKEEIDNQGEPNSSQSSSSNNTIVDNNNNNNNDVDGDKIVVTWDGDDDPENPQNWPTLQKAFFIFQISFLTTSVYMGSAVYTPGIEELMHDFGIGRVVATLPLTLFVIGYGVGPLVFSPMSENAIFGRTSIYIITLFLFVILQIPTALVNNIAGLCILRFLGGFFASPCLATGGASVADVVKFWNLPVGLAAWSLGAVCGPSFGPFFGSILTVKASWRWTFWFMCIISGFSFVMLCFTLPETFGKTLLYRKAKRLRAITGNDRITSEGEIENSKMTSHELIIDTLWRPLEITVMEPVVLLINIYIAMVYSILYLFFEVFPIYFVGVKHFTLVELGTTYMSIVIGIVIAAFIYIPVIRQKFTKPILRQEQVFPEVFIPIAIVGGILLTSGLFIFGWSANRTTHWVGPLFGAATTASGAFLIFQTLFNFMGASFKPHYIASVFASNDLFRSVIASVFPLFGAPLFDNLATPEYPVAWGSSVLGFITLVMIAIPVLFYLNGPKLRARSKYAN

## O=C1c2ccccc2C(Nc2ccc(S(=O)(=O)N3CCCCCC3)cc2)N1c1ccccn1 (stereo unspecified)
MEF
  CC50: > 99 µM (inactive)
[1]
  EC50: > 99 µM (inactive)
[2]
  EC50: 19.3 µM (active)
[3]
  EC50: 16.1 µM (active)
[4]
  EC50: > 99 µM (inactive)

## CCC1=[N+](CC(=O)c2ccc(C)cc2)CCn2c(C)ccc21
H4
  EC50: 28.3 µM (active)
[5]
  EC50: 13 µM (active)
[6]
  EC50: > 120 µM (not active)

## O=C(/C=C/c1cccs1)N1CCC2(CC1)Oc1ccc(F)cc1C(=O)C21CC(c2ccccc2)=NO1 (stereo unspecified)
[7]
  EC50: 29.7 µM (active)

## O=C(c1ccc(Cl)cc1)N1CCN(c2ccnc3ccc(Cl)cc23)CC1
Candida albicans [8]
  AC50: 9.92 µM (active)
Candida albicans [9]
  AC50: 0.397 µM (active)
Candida albicans [10]
  AC50: 1.47 µM (active)
Candida albicans [11]
  AC50: < 0.8 µM (active)

## N#Cc1cccc(NC(=O)c2ccc([N+](=O)[O-])o2)c1
HEK293 [12]
  IC50: 32.9 µM (inactive)
HEK293 [13]
  IC50: 57.4 µM (inactive)
Jurkat
  IC50: 18.1 µM (active)
